Source: patent US10160867B2, “Benzoxaborole-containing coating resistant to cellulose-supportable fungus” (THE PENN STATE RESEARCH FOUNDATION, priority 2015, dated 2018)
In brackets after ≈: the same amount, converted by molar mass.

How the values were obtained:
Penicillium purpurogenum = experiment: 3 day MIC, broth microdilution in 25% PDB; type: cell-based; conditions: 72 h; Penicillium purpurogenum; 25% PDB; read-out: 3 day MIC
In short: (§1)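 Broth microdilution in 25% potato dextrose broth containing about 0.5–2% v/v DMSO, spore inoculum at a final 0.4–1×10^5 spores/mL (CFU/mL). Plates sealed and incubated at about 25 °C; fungal growth checked at 48 and 72 h.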

Penicillium corylophilum = experiment: 3 day MIC, broth microdilution in 25% PDB; type: cell-based; conditions: 72 h, 25% PDB, read-out: 3 day MIC
In short: as §1

Stachybotrys chartarum [1] = experiment: 3 day MIC, broth microdilution in 25% PDB; type: cell-based; conditions: 72 h, 25% PDB, read-out: 3 day MIC
In short: as §1

Alternaria alternata [2] = experiment: 3 day MIC, broth microdilution in 25% PDB; type: cell-based; conditions: 72 h, 25% PDB, read-out: 3 day MIC
In short: as §1

[3] = test system: Penicillium brevicompactum; experiment: 3 day MIC, broth microdilution in 25% PDB; type: cell-based; conditions: 72 h, 25% PDB, read-out: 3 day MIC
In short: as §1

Penicillium chrysogenum [4] = experiment: Fungus resistance test after painting over fungal growth (defacement rating); type: cell-based; conditions: painted over fungal growth, +200 μg/mL in Valspar QuikHide paint
In short: (§2)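 Paint films with additives spiked from DMSO stocks were brushed over filter-paper discs already overgrown by fungus (defacement 3-5) on ASTM G21-13 nutrient-salts agar, extending 1-2 cm onto agar. Re-painted discs were incubated humid at elevated temperature, triplicate, and scored for regrowth by defacement rating.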

Stachybotrys chartarum [5] = experiment: as above; type: cell-based; conditions: painted over fungal growth
In short: as §2

Alternaria alternata [6] = experiment: as above; type: cell-based; conditions: painted over fungal growth
In short: as §2

Fusarium oxysparum ST-33 = experiment: 3 day MIC, broth microdilution in 25% PDB; type: cell-based; conditions: ST33, 72 h
In short: (§3)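 Modified CLSI M38-A2 broth microdilution; spore inoculum (in water with 0.1% Tween 20, counted by hemocytometer) at final 0.4-1×10^5 spores/mL. Compounds from DMSO stocks, final about 0.5-2% v/v DMSO. Sealed plates incubated at about 25° C; growth checked at 48 and 72 hours.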

Rhizopus spp. = experiment: 3 day MIC, broth microdilution in 25% PDB; type: cell-based; conditions: 72 h
In short: as §3

Mucor spp. = experiment: 3 day MIC, broth microdilution in 25% PDB; type: cell-based; conditions: 72 h
In short: as §3

[7] = test system: Cladosporium cladosporioides; experiment: 3 day MIC, broth microdilution in 25% PDB; type: cell-based; conditions: 72 h
In short: as §3

Aspergillus flavus = experiment: 3 day MIC, broth microdilution in 25% PDB; type: cell-based; conditions: 72 h
In short: as §3

Aureobasidium pullulans = experiment: 3 day MIC, broth microdilution in 25% PDB; type: cell-based; conditions: 72 h
In short: as §3

Aspergillus niger = experiment: 3 day MIC, broth microdilution in 25% PDB; type: cell-based; conditions: 72 h
In short: as §3

[8] = commercially available fungicidal agents; cited from earlier work
Penicillium chrysogenum [9] = experiment: 3 day MIC, broth microdilution in 25% PDB; type: cell-based; conditions: 72 h, 25% PDB, read-out: 3 day MIC
In short: as §1

[10] = +100 μg/mL in Olympic Home paint, 7 days
[11] = +100 μg/mL in Olympic Home paint, 14 days
[12] = +100 μg/mL in Olympic Home paint, 21 days
[13] = +200 μg/mL in Olympic Home paint, 7 days
[14] = +200 μg/mL in Olympic Home paint, 14 days
[15] = +200 μg/mL in Olympic Home paint, 21 days

**Q.** Which MIC (Penicillium purpurogenum) does the source give for `OB1OCc2cc(F)ccc21` [Compound B9, 5-Fluoro-1,3-dihydro-2,1-benzoxaborol-1-ol] here?
**A.** 0.78 µg/mL (≈ 5.13 µM)

**Q.** What about the MIC (Penicillium corylophilum) of the same compound?
**A.** 0.39 µg/mL (≈ 2.57 µM)

**Q.** What about the MIC (Stachybotrys chartarum [1]) of the same compound?
**A.** 0.13 µg/mL (≈ 0.856 µM)

**Q.** What about the MIC (Alternaria alternata [2]) of the same compound?
**A.** 1.6 µg/mL (≈ 10.5 µM)

**Q.** What about the MIC [3] of the same compound?
**A.** 0.2 µg/mL (≈ 1.32 µM)

**Q.** And the “Average defacement rating ± standard deviation” value (Penicillium chrysogenum [4]; 7 days)?
**A.** 8.7 ± 1.0 (9)

**Q.** And the “Average defacement rating ± standard deviation” value (Penicillium chrysogenum [4]; 14 days)?
**A.** 2.6 ± 3.1 (9)

**Q.** And the “Average defacement rating ± standard deviation” value (Penicillium chrysogenum [4]; 21 days)?
**A.** 0.0 ± 0.0 (9)

**Q.** What about the “Average defacement rating ± standard deviation” value (Stachybotrys chartarum [5]; +10 μg/mL in Olympic Home paint, 7 days) of the same compound?
**A.** 0.3 ± 0.6 (3)

**Q.** What about the “Average defacement rating ± standard deviation” value (Stachybotrys chartarum [5]; +10 μg/mL in Olympic Home paint, 14 days) of the same compound?
**A.** 0.0 ± 0.0 (3)

**Q.** And the “Average defacement rating ± standard deviation” value (Stachybotrys chartarum [5]; +10 μg/mL in Olympic Home paint, 21 days)?
**A.** 0.0 ± 0.0 (3)

**Q.** What about the “Average defacement rating ± standard deviation” value (Stachybotrys chartarum [5]; [10]) of the same compound?
**A.** 7.2 ± 2.6 (9)

**Q.** What about the “Average defacement rating ± standard deviation” value (Stachybotrys chartarum [5]; [11]) of the same compound?
**A.** 1.3 ± 3.0 (9)

**Q.** What about the “Average defacement rating ± standard deviation” value (Stachybotrys chartarum [5]; [12]) of the same compound?
**A.** 1.0 ± 2.8 (9)

**Q.** And the “Average defacement rating ± standard deviation” value (Alternaria alternata [6]; [11])?
**A.** 5.1 ± 2.1 (12)

**Q.** What about the “Average defacement rating ± standard deviation” value (Alternaria alternata [6]; [12]) of the same compound?
**A.** 4.6 ± 2.2 (12)

**Q.** What about the “Average defacement rating ± standard deviation” value (Alternaria alternata [6]; [13]) of the same compound?
**A.** 9.7 ± 0.6 (3)

**Q.** And the “Average defacement rating ± standard deviation” value (Alternaria alternata [6]; [14])?
**A.** 7.0 ± 4.4 (3)

**Q.** What about the “Average defacement rating ± standard deviation” value (Alternaria alternata [6]; [15]) of the same compound?
**A.** 6.3 ± 5.5 (3)

**Q.** What about the MIC (Fusarium oxysparum ST-33) of the same compound?
**A.** 0.25 µg/mL (≈ 1.65 µM)

**Q.** And the MIC (Rhizopus spp.)?
**A.** 0.5 µg/mL (≈ 3.29 µM)

**Q.** What about the MIC (Mucor spp.) of the same compound?
**A.** 0.25 µg/mL (≈ 1.65 µM)

**Q.** And the MIC [7]?
**A.** 0.1 µg/mL (≈ 0.658 µM)

**Q.** And the MIC (Aspergillus flavus)?
**A.** 1 µg/mL (≈ 6.58 µM)

**Q.** What about the MIC (Aureobasidium pullulans) of the same compound?
**A.** 0.125 µg/mL (≈ 0.823 µM)

**Q.** What about the MIC (Aspergillus niger) of the same compound?
**A.** 0.25 µg/mL (≈ 1.65 µM)

**Q.** With `c1ccc2[nH]c(-c3cscn3)nc2c1` [Thiabendazole] as the compound, how does the Solubility in water [8] read?
**A.** 8 µg/mL (≈ 39.8 µM)

**Q.** What about the MIC (Penicillium purpurogenum) of the same compound?
**A.** 0.2 µg/mL (≈ 0.994 µM)

**Q.** What about the MIC (Penicillium chrysogenum [9]) of the same compound?
**A.** 0.4 µg/mL (≈ 1.99 µM)

**Q.** And the MIC (Penicillium corylophilum)?
**A.** 0.39 µg/mL (≈ 1.94 µM)

**Q.** What about the MIC (Stachybotrys chartarum [1]) of the same compound?
**A.** 25 µg/mL (≈ 124 µM)

**Q.** And the MIC (Alternaria alternata [2])?
**A.** 100 µg/mL (≈ 497 µM)

**Q.** What about the MIC [3] of the same compound?
**A.** 0.4 µg/mL (≈ 1.99 µM)

**Q.** And the “Average defacement rating ± standard deviation” value (Penicillium chrysogenum [4]; 7 days)?
**A.** 6.7 ± 4.6 (9)

**Q.** And the “Average defacement rating ± standard deviation” value (Penicillium chrysogenum [4]; 14 days)?
**A.** 2.2 ± 4.4 (9)

**Q.** And the “Average defacement rating ± standard deviation” value (Penicillium chrysogenum [4]; 21 days)?
**A.** 2.2 ± 4.4 (9)

**Q.** And the “Average defacement rating ± standard deviation” value (Stachybotrys chartarum [5]; [10])?
**A.** 0.7 ± 1.6 (6)

**Q.** And the “Average defacement rating ± standard deviation” value (Stachybotrys chartarum [5]; [11])?
**A.** 0.2 ± 0.8 (6)

**Q.** And the “Average defacement rating ± standard deviation” value (Stachybotrys chartarum [5]; [12])?
**A.** 0.2 ± 0.8 (6)

**Q.** And the “Average defacement rating ± standard deviation” value (Alternaria alternata [6]; [10])?
**A.** 0.0 ± 0.0 (6)

**Q.** What about the “Average defacement rating ± standard deviation” value (Alternaria alternata [6]; [11]) of the same compound?
**A.** 0.0 ± 0.0 (6)

**Q.** What about the “Average defacement rating ± standard deviation” value (Alternaria alternata [6]; [12]) of the same compound?
**A.** 0.0 ± 0.0 (6)

**Q.** What about the “Average defacement rating ± standard deviation” value (Alternaria alternata [6]; +1000 μg/mL in Olympic Home paint, 7 days) of the same compound?
**A.** 7.3 ± 1.3 (10)

**Q.** And the “Average defacement rating ± standard deviation” value (Alternaria alternata [6]; +1000 μg/mL in Olympic Home paint, 14 days)?
**A.** 3.6 ± 1.7 (10)

**Q.** What about the “Average defacement rating ± standard deviation” value (Alternaria alternata [6]; +1000 μg/mL in Olympic Home paint, 21 days) of the same compound?
**A.** 2.8 ± 1.1 (10)

**Q.** What about the MIC (Fusarium oxysparum ST-33) of the same compound?
**A.** 25 µg/mL (≈ 124 µM)

**Q.** And the MIC (Rhizopus spp.)?
**A.** 400 µg/mL (≈ 1990 µM)

**Q.** What about the MIC (Mucor spp.) of the same compound?
**A.** > 200 µg/mL

**Q.** And the MIC [7]?
**A.** 0.8 µg/mL (≈ 3.98 µM)

**Q.** And the MIC (Aspergillus flavus)?
**A.** 12.5 µg/mL (≈ 62.1 µM)

**Q.** What about the MIC (Aureobasidium pullulans) of the same compound?
**A.** 0.4 µg/mL (≈ 1.99 µM)

**Q.** What about the MIC (Aspergillus niger) of the same compound?
**A.** 12.5 µg/mL (≈ 62.1 µM)

**Q.** What does the source list for `OB1OCc2cc(Cl)ccc21` [Compound B8, 5-chloro-1,3-dihydro-2,1-benzoxaborol-1-ol]?
**A.** MIC (Penicillium purpurogenum): 1.56 µg/mL (≈ 9.26 µM); MIC (Penicillium corylophilum): 0.78 µg/mL (≈ 4.63 µM); MIC (Stachybotrys chartarum [1]): 0.13 µg/mL (≈ 0.772 µM); MIC (Alternaria alternata [2]): 3.1 µg/mL (≈ 18.4 µM); MIC [3]: 0.4 µg/mL (≈ 2.38 µM); Average defacement rating ± standard deviation (Penicillium chrysogenum [4]; 7 days): 2.3 ± 0.6 (9); Average defacement rating ± standard deviation (Penicillium chrysogenum [4]; 14 days): 0.0 ± 0.0 (9); Average defacement rating ± standard deviation (Penicillium chrysogenum [4]; 21 days): 0.0 ± 0.0 (9); Average defacement rating ± standard deviation (Stachybotrys chartarum [5]; [10]): 7.0 ± 1.9 (9); Average defacement rating ± standard deviation (Stachybotrys chartarum [5]; [11]): 6.4 ± 2.6 (9); Average defacement rating ± standard deviation (Alternaria alternata [6]; [11]): 3.4 ± 2.9 (9); Average defacement rating ± standard deviation (Alternaria alternata [6]; [12]): 3.0 ± 2.8 (9); Average defacement rating ± standard deviation (Alternaria alternata [6]; [13]): 9.3 ± 1.2 (3); Average defacement rating ± standard deviation (Alternaria alternata [6]; [14]): 7.3 ± 2.9 (3); Average defacement rating ± standard deviation (Alternaria alternata [6]; [15]): 3.0 ± 0.9 (3); MIC (Fusarium oxysparum ST-33): 0.25 µg/mL (≈ 1.48 µM); MIC (Rhizopus spp.): 4 µg/mL (≈ 23.8 µM); MIC (Mucor spp.): 0.5 µg/mL (≈ 2.97 µM); MIC [7]: 0.1 µg/mL (≈ 0.594 µM); MIC (Aspergillus flavus): 1 µg/mL (≈ 5.94 µM); MIC (Aureobasidium pullulans): 0.125 µg/mL (≈ 0.742 µM); MIC (Aspergillus niger): 0.25 µg/mL (≈ 1.48 µM)
